According to patent US20090156518A1, “STABLE PHARMACEUTICAL COMPOSITION COMPRISING BETA-LACTAM ANTIBIOTIC AND BUFFER” (priority 2006, published 2009):

Assay: amounts of β-lactam antibiotic, β-lactamase inhibitor (C18 reverse-phase LC, UV-VIS) and aminoglycoside (HPLC-ELSD) in solution over time
Format: physicochemical
[1] = Example 10: mezlocillin sodium 2 g, sulbactam sodium 0.5 g, etimicin sulfate 200 mg, citrate pH 6.5, 200 mL water, room temperature, Time 0 h
[2] = Example 10: mezlocillin sodium 2 g, sulbactam sodium 0.5 g, etimicin sulfate 200 mg, citrate pH 6.5, 200 mL water, room temperature, Time 1 h
[3] = Example 10: mezlocillin sodium 2 g, sulbactam sodium 0.5 g, etimicin sulfate 200 mg, citrate pH 6.5, 200 mL water, room temperature, Time 2 h
[4] = Example 11: freeze-dried mezlocillin sodium, sulbactam sodium, citrate pH 6.5, 7 days 0° C., in 100 mL 5% fructose + etimicin sulfate 200 mg, Time 0 h
[5] = Example 11: freeze-dried mezlocillin sodium, sulbactam sodium, citrate pH 6.5, 7 days 0° C., in 100 mL 5% fructose + etimicin sulfate 200 mg, Time 1 h
[6] = Example 11: freeze-dried mezlocillin sodium, sulbactam sodium, citrate pH 6.5, 7 days 0° C., in 100 mL 5% fructose + etimicin sulfate 200 mg, Time 2 h
[7] = Example 11: freeze-dried mezlocillin sodium, sulbactam sodium, citrate pH 6.5, 7 days 0° C., in 100 mL 5% fructose + etimicin sulfate 200 mg, Time 4 h
[8] = Example 11: freeze-dried mezlocillin sodium, sulbactam sodium, citrate pH 6.5, 7 days 0° C., in 100 mL 5% fructose + etimicin sulfate 200 mg, Time 6 h
[9] = Example 11: freeze-dried mezlocillin sodium, sulbactam sodium, citrate pH 6.5, 7 days 0° C., in 100 mL 5% fructose + etimicin sulfate 200 mg, Time 8 h

Description: The amounts of β-lactam antibiotics and β-lactamase inhibitor were determined using C18 reverse-phase LC and UV-VIS detector (Tianjin Hemay BioTech Co., Ltd., analysis method No. HM-K-03). The content of aminoglycoside antibiotics was measured using reverse-phase HPLC and evaporation-light-scattering detector (ELSD detector) (Tianjin Hemay BioTech Co., Ltd., analysis method No. HM-K-08). The amount of antibiotic component at each time point was expressed as a percentage with respect to the amount at the initial time (herein defined as 100%). The relative amount of each antibiotic component in the composition at each time point was expressed as peak area ratio with respect to the corresponding peak area of an external standard.

CCN[C@@H]1C[C@H](N)[C@@H](O[C@H]2O[C@H](CN)CC[C@H]2N)[C@H](O)[C@H]1O[C@H]1OC[C@](C)(O)[C@H](NC)[C@H]1O.O=S(=O)(O)O [Etimicin sulfate, etimicin sulfate]
amount of component as percentage with respect to the amount at the initial time (Example 6: freeze-dried cefoperazone sodium 4 g, sulbactam sodium 1 g, citrate pH 6.75, + etimicin sulfate 200 mg, 7 days 0° C., dissolved in 100 mL water, Time 0 h): 108.9%
amount of component as percentage with respect to the amount at the initial time (Example 6: freeze-dried cefoperazone sodium 4 g, sulbactam sodium 1 g, citrate pH 6.75, + etimicin sulfate 200 mg, 7 days 0° C., dissolved in 100 mL water, Time 1 h): 100.2%
amount of component as percentage with respect to the amount at the initial time (Example 6: freeze-dried cefoperazone sodium 4 g, sulbactam sodium 1 g, citrate pH 6.75, + etimicin sulfate 200 mg, 7 days 0° C., dissolved in 100 mL water, Time 2 h): 100.5%
amount of component as percentage with respect to the amount at the initial time (Example 6: freeze-dried cefoperazone sodium 4 g, sulbactam sodium 1 g, citrate pH 6.75, + etimicin sulfate 200 mg, 7 days 0° C., dissolved in 100 mL water, Time 4 h): 100.4%
amount of component as percentage with respect to the amount at the initial time (Example 6: freeze-dried cefoperazone sodium 4 g, sulbactam sodium 1 g, citrate pH 6.75, + etimicin sulfate 200 mg, 7 days 0° C., dissolved in 100 mL water, Time 6 h): 100.4%
amount of component as percentage with respect to the amount at the initial time (Example 6: freeze-dried cefoperazone sodium 4 g, sulbactam sodium 1 g, citrate pH 6.75, + etimicin sulfate 200 mg, 7 days 0° C., dissolved in 100 mL water, Time 8 h): 97.50%
amount of component as percentage with respect to the amount at the initial time [1]: 100.1%
amount of component as percentage with respect to the amount at the initial time [2]: 100.6%
amount of component as percentage with respect to the amount at the initial time [3]: 99.79%
amount of component as percentage with respect to the amount at the initial time [4]: 100.1%
amount of component as percentage with respect to the amount at the initial time [5]: 100.4%
amount of component as percentage with respect to the amount at the initial time [6]: 99.31%
amount of component as percentage with respect to the amount at the initial time [7]: 99.56%
amount of component as percentage with respect to the amount at the initial time [8]: 99.61%
amount of component as percentage with respect to the amount at the initial time [9]: 99.25%

NCC[C@H](O)C(=O)N[C@@H]1C[C@H](N)[C@@H](O[C@H]2O[C@H](CN)[C@@H](O)[C@H](O)[C@H]2O)[C@H](O)[C@H]1O[C@H]1O[C@H](CO)[C@@H](O)[C@H](N)[C@H]1O.O=S(=O)(O)O.O=S(=O)(O)O [Amikacin sulfate, amikacin sulfate]
amount of component as percentage with respect to the amount at the initial time (Example 5: freeze-dried cefoperazone sodium 4 g, sulbactam sodium 0.5 g, citrate pH 6.75, + amikacin sulfate 500 mg, 7 days 0° C., dissolved in 100 mL water, Time 0 h): 98.98%
amount of component as percentage with respect to the amount at the initial time (Example 5: freeze-dried cefoperazone sodium 4 g, sulbactam sodium 0.5 g, citrate pH 6.75, + amikacin sulfate 500 mg, 7 days 0° C., dissolved in 100 mL water, Time 1 h): 98.73%
amount of component as percentage with respect to the amount at the initial time (Example 5: freeze-dried cefoperazone sodium 4 g, sulbactam sodium 0.5 g, citrate pH 6.75, + amikacin sulfate 500 mg, 7 days 0° C., dissolved in 100 mL water, Time 2 h): 98.52%
amount of component as percentage with respect to the amount at the initial time (Example 5: freeze-dried cefoperazone sodium 4 g, sulbactam sodium 0.5 g, citrate pH 6.75, + amikacin sulfate 500 mg, 7 days 0° C., dissolved in 100 mL water, Time 4 h): 98.41%
amount of component as percentage with respect to the amount at the initial time (Example 5: freeze-dried cefoperazone sodium 4 g, sulbactam sodium 0.5 g, citrate pH 6.75, + amikacin sulfate 500 mg, 7 days 0° C., dissolved in 100 mL water, Time 6 h): 98.76%
amount of component as percentage with respect to the amount at the initial time (Example 17: freeze-dried cefoperazone sodium 4 g, sulbactam sodium 1 g, citrate pH 6.75, 7 days 0° C., in 100 mL water, 10 mL + amikacin sulfate 40 mg, room temperature, Time 0 h): 99.91%
amount of component as percentage with respect to the amount at the initial time (Example 17: freeze-dried cefoperazone sodium 4 g, sulbactam sodium 1 g, citrate pH 6.75, 7 days 0° C., in 100 mL water, 10 mL + amikacin sulfate 40 mg, room temperature, Time 1 h): 99.50%
amount of component as percentage with respect to the amount at the initial time (Example 17: freeze-dried cefoperazone sodium 4 g, sulbactam sodium 1 g, citrate pH 6.75, 7 days 0° C., in 100 mL water, 10 mL + amikacin sulfate 40 mg, room temperature, Time 2 h): 98.88%
amount of component as percentage with respect to the amount at the initial time (Example 17: freeze-dried cefoperazone sodium 4 g, sulbactam sodium 1 g, citrate pH 6.75, 7 days 0° C., in 100 mL water, 10 mL + amikacin sulfate 40 mg, room temperature, Time 4 h): 99.45%
amount of component as percentage with respect to the amount at the initial time (Example 17: freeze-dried cefoperazone sodium 4 g, sulbactam sodium 1 g, citrate pH 6.75, 7 days 0° C., in 100 mL water, 10 mL + amikacin sulfate 40 mg, room temperature, Time 6 h): 98.56%
amount of component as percentage with respect to the amount at the initial time (Example 17: freeze-dried cefoperazone sodium 4 g, sulbactam sodium 1 g, citrate pH 6.75, 7 days 0° C., in 100 mL water, 10 mL + amikacin sulfate 40 mg, room temperature, Time 8 h): 99.36%

CC1(C)S[C@@H]2[C@H](NC(=O)[C@H](NC(=O)N3CCN(S(C)(=O)=O)C3=O)c3ccccc3)C(=O)N2[C@H]1C(=O)O [Mezlocillin sodium]
amount of component as percentage with respect to the amount at the initial time [1]: 96.48%
amount of component as percentage with respect to the amount at the initial time [2]: 95.90%
amount of component as percentage with respect to the amount at the initial time [3]: 71.70%
amount of component as percentage with respect to the amount at the initial time (Example 10: mezlocillin sodium 2 g, sulbactam sodium 0.5 g, etimicin sulfate 200 mg, citrate pH 6.5, 200 mL water, room temperature, Time 4 h): 91.78%
amount of component as percentage with respect to the amount at the initial time (Example 10: mezlocillin sodium 2 g, sulbactam sodium 0.5 g, etimicin sulfate 200 mg, citrate pH 6.5, 200 mL water, room temperature, Time 6 h): 93.08%
amount of component as percentage with respect to the amount at the initial time (Example 10: mezlocillin sodium 2 g, sulbactam sodium 0.5 g, etimicin sulfate 200 mg, citrate pH 6.5, 200 mL water, room temperature, Time 8 h): 97.69%
amount of component as percentage with respect to the amount at the initial time [4]: 116.6%
amount of component as percentage with respect to the amount at the initial time [5]: 94.83%
amount of component as percentage with respect to the amount at the initial time [6]: 91.86%
amount of component as percentage with respect to the amount at the initial time [7]: 91.96%
amount of component as percentage with respect to the amount at the initial time [8]: 91.52%
amount of component as percentage with respect to the amount at the initial time [9]: 98.56%
amount of component as percentage with respect to the amount at the initial time (Example 13: freeze-dried mezlocillin sodium, citrate pH 6, 7 days 0° C., in 100 mL 5% fructose + etimicin sulfate 200 mg, Time 0 h): 95.05%
amount of component as percentage with respect to the amount at the initial time (Example 13: freeze-dried mezlocillin sodium, citrate pH 6, 7 days 0° C., in 100 mL 5% fructose + etimicin sulfate 200 mg, Time 1 h): 96.63%
amount of component as percentage with respect to the amount at the initial time (Example 13: freeze-dried mezlocillin sodium, citrate pH 6, 7 days 0° C., in 100 mL 5% fructose + etimicin sulfate 200 mg, Time 2 h): 89.33%
amount of component as percentage with respect to the amount at the initial time (Example 13: freeze-dried mezlocillin sodium, citrate pH 6, 7 days 0° C., in 100 mL 5% fructose + etimicin sulfate 200 mg, Time 4 h): 98.72%
amount of component as percentage with respect to the amount at the initial time (Example 13: freeze-dried mezlocillin sodium, citrate pH 6, 7 days 0° C., in 100 mL 5% fructose + etimicin sulfate 200 mg, Time 6 h): 92.73%
amount of component as percentage with respect to the amount at the initial time (Example 13: freeze-dried mezlocillin sodium, citrate pH 6, 7 days 0° C., in 100 mL 5% fructose + etimicin sulfate 200 mg, Time 8 h): 92.51%
